Laboratory results reported in patent EP1023836A1, “Compositions and methods for inhibiting the growth of fungi” (UNILEVER N.V., priority 1999, dated 2000).

Columns and labels:
Type in all cases: cell-based
[1] = tested on: Saccharomyces cerevisiae strain SU52-pUR5801; assay: Cell wall protein release test (secretion of α-galactosidase-CWP2p fusion protein, α-galactosidase activity in the medium); details: β-gentiobiose 10, 50 and 100 mM in YEPD with 5% galactose, 30 °C, 18 hours; linear up to 100 mM (Fig. 1)
Procedure: (§1) • a) Saccharomyces cerevisiae strain SU52-pUR 5801 was grown in YNB and YEPD media, at 30°C with shaking at 225 rpm in an orbital incubator until a OD (660 nm) between 5 and 6 was reached. In parallel experiments several concentrations of β-gentiobiose or pustulan fragments were included in the media. After cultivation, the media were separated from the cells by centrifugation (10.000 x g for 15 mm at 4°C). The media were then filtered using 0.22 µM filters. Secretion of α-galactosidase-CWP2p was assessed by measuring α-galactosidase enzyme activity in the media (see further on). • b) Growth curves were obtained with the strain SU-50. The cells (about 10 per ml) were cultured in YEPD at 25°C in the presence or absence of β-gentiobiose or pustulan fragments and MB-21, by using a 24 well plate at room temperature with continuous shaking on a micro-titre plate shaker (mark 4) or a microbiology growth reader (Bioscreen C).
α-Galactosidase activity was determined at 37°C using p-nitrophenyl α-D-galactopyranoside (PNPG) as substrate in 0.1 M potassium acetate buffer, pH 5.0. […] The extinction of the liberated p-nitrophenolate was recorded at 405 nm.
β-Gentiobiose was dissolved in YEPD media supplemented with 5% galactose, in concentrations of 10, 50 and 100 mM respectively. […] The enzyme activity of the fusion protein CWP2-α-galactosidase was measured as described in the α-galactosidase assay. […]

[2] = tested on: Saccharomyces cerevisiae wild type strain SU-50; assay: Growth curves / growth inhibition of yeast strain SU-50; details: for effect on growth: comparative sugar 25 mM with 25 µM MB21, strain SU50, 100 cells per ml, versus reference (no sugar, no MMAS) and MB21 alone (Fig. 5a)
Procedure: (§2) For examples 2, and 4-9 grow-curves were recorded at 25°C using a microbiology growth reader (Bioscreen C, ex Labsystems). For example 3, growth curve was determined as turbidity, measured by hand at a wave length of 660 nm (OD 660).
as §1
(§3) Three YEPD media were prepared, one without MB21, the other YEPD media contained 10 µM MB21 and 20 µM MB21, respectively. To these media β-gentiobiose was added in concentrations of 0, 50, 100 and 200 mM. The yeast strain SU50 was inoculated in these media in a concentration of 10 cells per ml, and cultivated in a 24 well plate at 25°C. Samples were taken from a 24 well plate at regular time intervals, diluted sixty times with distilled water and measured at 660 nm to construct the growth curves. […] However, if the sub-lethal concentrations of MB21 and β-gentiobiose are combined, a clear reduction in growth potential of SU50 (10 cells per ml) was observed.
This example illustrates a relationship between the length of the β-(1,6)-glucan fragments and their effectiveness in competition. When the same concentration of MB21 (20 µM) was used [about 50 cells per ml] was used, a glucan fragment was obtained from pustulan with an average MW of 686, which was at least hundred times as effective as β-gentiobiose, as shown in Fig. 4.
(§4) In this example, three strains are grown in various media in the fashion of example 3, with the exception of being inoculated in the media in a concentration of 100 cells per ml. The sugars used are all comparatives: laminaribiose (β-1,3)-linked D-glucose), sucrose (having a 1,2 link), and sorbitol.
In this example, strain SU 50 was grown three media (see table 2) in the fashion of example 3, with the exception of being inoculated in the media in a concentration of 100 cells per ml.

[3] = tested on: Zygosaccharomyces bailii ZB (NCYC 563); assay: Growth curves / growth inhibition of yeast strain ZB; details: comparative sugar 200 mM with 6 µM MB21, strain ZB, 100 cells per ml; versus reference and MB21 alone (Fig. 5b)
Procedure: as §2, §3, §4
In this example, strain ZB was grown three media (see table 3) in the fashion of example 3, with the exception of being inoculated in the media in a concentration of 100 cells per ml.

[4] = tested on: Zygosaccharomyces bailii G1; assay: Growth curves / growth inhibition of yeast strain G1; details: comparative sugar 200 mM with 6 µM MB21, strain G1, 100 cells per ml; versus reference and MB21 alone (Fig. 5c)
Procedure: as §2, §3, §4
In this example, strain G1 was grown three media (see table 4) in the fashion of example 3, with the exception of being inoculated in the media in a concentration of 100 cells per ml. […]

Row | Structure (SMILES) | release of the fusion protein α-galactosidase-CW2p from the cell wall [1] | growth of SU-50 ([2]; β-gentiobiose as such (0, 50, 100, 200 mM), no MB21, 10 cells per ml, 25°C, OD 660 (Fig. 3)) | effect on growth [2] | effect on growth [3] | effect on growth [4]
1 | OC[C@H]1O[C@@H](OC[C@H]2O[C@@H](O)[C@H](O)[C@@H](O)[C@@H]2O)[C@H](O)[C@@H](O)[C@@H]1O [β-Gentiobiose, 6-O-β-D-glucopyranosyl-β-D-glucose] | concentration dependent | no influence | – | – | –
2 | OC[C@H]1O[C@@](CO)(O[C@H]2O[C@H](CO)[C@@H](O)[C@H](O)[C@H]2O)[C@@H](O)[C@@H]1O [sucrose] | – | – | stimulating effect | stimulating effect | stimulating effect
3 | OC[C@H]1O[C@@H](O[C@H]2[C@H](O)[C@@H](CO)OC(O)[C@@H]2O)[C@H](O)[C@@H](O)[C@@H]1O (stereo partly drawn) [laminaribiose] | – | – | stimulating effect | – | –
4 | OC[C@@H](O)[C@@H](O)[C@H](O)[C@@H](O)CO [sorbitol] | – | – | stimulating effect | stimulating effect | stimulating effect
